The results in this text go back to article PMC12193374, “Exploring Carboxamide Derivatives as Promising Anticancer Agents: Design, In Vitro Evaluation, and Mechanistic Insights” (International Journal of Molecular Sciences, 2025).

What all share (format): cell-based
The subject of experiment [1] is HCT-116 human colorectal carcinoma cells. Put plainly: MTT antiproliferative assay, HCT-116. As to conditions: for IC50: Homo sapiens, HCT-116, MTT, 72 h treatment, mean ± SD, read-out: IC50 (µM) ± S.D. HCT-116 Colon Cancer; for Selectivity index (IC50 normal fibroblast/IC50 HCT-116): fibroblasts/colon cancer, first value of the SI cell; for Selectivity for HCT-116 over MCF-7: ratio of MCF-7 to HCT-116 IC50. As to the method: (§1) The proliferation inhibitory activities of the carboxamide derivatives 4-16 were tested in vitro using the MTT assay against the human cancer MCF-7, K-562, and HCT-116 cell lines in addition to normal human cells (dermal fibroblasts) to evaluate their putative selective cytotoxic activities. […] The human colorectal carcinoma (HCT-116), human breast adenocarcinoma (MCF-7), human chronic myelogenous leukemia (K-562), and human dermal fibroblast normal cell lines were purchased from were purchased from the American Type Culture Collection (ATCC) (Manassas, VA, USA) and stored in liquid nitrogen. Cells were passaged twice weekly upon reaching 70–80% confluency, and only low passage numbers (≤ 10) were used in all experiments. Mycoplasma contamination was monitored using the Lonza MycoAlert™ mycoplasma detection kit. Cells were sub-cultured and maintained with appropriate media: RPMI-1640 medium (Buffalo, New York, USA) was used to grow MCF-7, K-562 and HCT-116 cancer cells, while fibroblast cells were cultured in Iscove’s Modified Dulbecco’s medium (IMDM) (EuroClone S.p.A., Pero, MI, Italy). Both media were supplemented with 10% (v/v) heat-inactivated fetal bovine serum (FBS) (Gibco, CA, USA), 2 mM of L-Glutamine, 100 units/mL of Penicillin, and 100 μg/mL of Streptomycin (EuroClone, Italy). Cells were maintained at 37 °C in a humidified incubator with 5% CO2 (NuAire, Plymouth, MN, USA). The MTT colorimetric assay utilized in this study was previously described and adapted from Mosmann. The MTT regent [3-(4,5-dimethylthiazol-2-yl)-2,5-diphenyl tetrazolium bromide] was employed to evaluate the antiproliferative activities of carboxamides 4-16 against MCF-7, K-562, HCT-116, and dermal normal fibroblast cell lines. Cells (6–8 × 10^3 per well, 180 µL) were seeded into 96-well plates (Corning, New York, USA) and allowed to adhere overnight at 37 °C in a humidified 5% CO₂ incubator. Fresh top stock solutions of the test compounds (10 mM in DMSO) were then freshly prepared, followed by serial dilutions in the appropriate culture media before being added to the seeded cells. […] Initial screening for potential antiproliferative activity was carried out using two concentration points (10 µM and 50 µM) in triplicate over a 72-hour incubation period. […] Following 72 h of exposure, MTT solution (2 mg/mL in PBS, 50 µL per well) was added, and plates were incubated for an additional 4 h. The supernatant in each well was then removed, and the resulting formazan crystals were solubilized by adding DMSO (150 µL per well). Absorbance, measured as the optical density (OD), was recorded at 570 nm using a microplate reader (Thermo Fisher Scientific, Waltham, MA, USA). The detected signal intensity corresponds to metabolic activity, which directly correlates with the viable cell number. All experiments were performed in triplicate, and the results are presented as the mean ± standard deviation (SD). The IC50 values for antiproliferative activity were calculated using nonlinear regression analysis in GraphPad Prism software (GraphPad Prism version 9.0.0 for Windows, GraphPad Software, San Diego, California USA). Additionally, a two-way ANOVA test was conducted to analyze significant variations in IC50 values, with a significant level set at α = 0.05.

Experiment [2] deals with MCF-7 human breast adenocarcinoma cells. Put plainly: MTT antiproliferative assay, MCF-7. As to conditions: for IC50: Homo sapiens, MCF7, 72 h, read-out: IC50 (µM) ± S.D. MCF-7 Breast Cancer; for Selectivity index (IC50 normal fibroblast/IC50 MCF-7): fibroblasts/breast cancer, second value of the SI cell. As to the method:
as §1

Experiment [3] has as its system K-562 human chronic myelogenous leukemia cells. Put plainly: MTT antiproliferative assay, K-562. As to conditions: for Selectivity index (IC50 normal fibroblast/IC50 K-562): fibroblasts/leukemia, third value of the SI cell; for IC50: Homo sapiens, K562, 72 h, MTT, 72 h treatment, mean ± SD, read-out: IC50 (µM) ± S.D. K-562 Leukemia. As to the method: as §1
Experiment [4] deals with human dermal fibroblast normal cell line. Put plainly: MTT assay, normal dermal fibroblasts. The following applies: 72 h treatment, read-out: IC50 (µM) ± S.D. Dermal Fibroblast Normal. The method, then: as §1

For `O=C(Nc1ccc2c(c1)C(=O)c1ccccc1C2=O)c1cc2ccccc2[nH]1` [Compound 14, N-(9,10-Dihydro-9,10-dioxoanthracen-2-yl)-1H-indole-2-carboxamide], the IC50 in experiment [1] is 2.64 ± 0.07 µM; in experiment [2] (MTT, 72 h treatment, mean ± SD), 7.16 ± 0.36 µM; in experiment [4], greater than 100 µM. In addition, the “Selectivity index (IC50 normal fibroblast/IC50 HCT-116)” value in experiment [1] is recorded as greater than 37.9. For the same compound, the “Selectivity index (IC50 normal fibroblast/IC50 MCF-7)” value in experiment [2] is reported as greater than 14.0. Also, in experiment [3], the “Selectivity index (IC50 normal fibroblast/IC50 K-562)” value is greater than 164.

Consider `O=C(Nc1ccc(F)cc1)c1cc2ccccc2[nH]1` [Compound 6, N-(4-Florophenyl)-1H-indole-2-carboxamide], for which the IC50 in experiment [1] was 25.4 ± 0.38 µM; in experiment [2] (MTT, 72 h treatment, mean ± SD), 80.8 ± 4.04 µM; in experiment [3] it was 84.6 ± 4.23 µM; in experiment [4], greater than 100 µM. Also, in experiment [1], the “Selectivity index (IC50 normal fibroblast/IC50 HCT-116)” value is on record as greater than 3.9. Besides, in experiment [2], the “Selectivity index (IC50 normal fibroblast/IC50 MCF-7)” value is listed as greater than 1.2. In experiment [3], the “Selectivity index (IC50 normal fibroblast/IC50 K-562)” value was greater than 1.2.

Take `O=C(Nc1cccc2c1C(=O)c1ccccc1C2=O)c1cc2ccccc2[nH]1` [Compound 12, N-(9,10-Dihydro-9,10-dioxoanthracen-1-yl)-1H-indole-2-carboxamide]: the IC50 is 3.98 ± 0.06 µM in experiment [1], 0.33 ± 0.02 µM in experiment [3] and greater than 100 µM in experiment [4]. The “Selectivity index (IC50 normal fibroblast/IC50 HCT-116)” value in experiment [1] is on record as greater than 25.1. Moreover, the “Selectivity index (IC50 normal fibroblast/IC50 MCF-7)” value in experiment [2] is greater than 11.0. In experiment [3], the “Selectivity index (IC50 normal fibroblast/IC50 K-562)” value is recorded as greater than 303.

As for `O=C(Nc1ccccn1)c1cc2ccccc2[nH]1` [Compound 10, N-(Pyridin-2-yl)-1H-indole-2-carboxamide], the IC50 is 1.01 ± 0.04 µM in experiment [1]; 70.3 ± 3.52 µM in experiment [2] (MTT, 72 h treatment, mean ± SD); greater than 100 µM in experiment [3]; greater than 100 µM in experiment [4]. The “Selectivity index (IC50 normal fibroblast/IC50 HCT-116)” value in experiment [1] was greater than 99.4. In addition, the “Selectivity for HCT-116 over MCF-7” value in experiment [1] was found to be 69.6 fold. The “Selectivity index (IC50 normal fibroblast/IC50 MCF-7)” value in experiment [2] is greater than 1.4.

Turning to `O=C(Nc1ccc([N+](=O)[O-])cc1)c1cc2ccccc2[nH]1` [Compound 8, N-(4-Nitrophenyl)-1H-indole-2-carboxamide], the IC50 in experiment [1] was 32 ± 0.83 µM; in experiment [2] (MTT, 72 h treatment, mean ± SD), greater than 100 µM; in experiment [3], greater than 100 µM; in experiment [4] it was greater than 100 µM. Further, the “Selectivity index (IC50 normal fibroblast/IC50 HCT-116)” value in experiment [1] is reported as greater than 3.1. Besides, the “IC50 (µM) ± S.D. MCF-7 Breast Cancer” value in experiment [2] (MTT, 72 h treatment, mean ± SD) is on record as “exceptional resistance”.

`O=C(Nc1ccc(Cl)cc1)c1cc2ccccc2[nH]1` [Compound 4, N-(4-Chlorophenyl)-1H-indole-2-carboxamide]: the IC50 in experiment [1] was 3.94 ± 0.03 µM; in experiment [2] (MTT, 72 h treatment, mean ± SD), 10.6 ± 0.53 µM; in experiment [3], 0.61 ± 0.03 µM; in experiment [4] it was greater than 100 µM. For the same compound, the “Selectivity index (IC50 normal fibroblast/IC50 HCT-116)” value in experiment [1] is listed as greater than 25.4. In experiment [2], the “Selectivity index (IC50 normal fibroblast/IC50 MCF-7)” value is given as greater than 9.4. In addition, the “Selectivity index (IC50 normal fibroblast/IC50 K-562)” value in experiment [3] is on record as greater than 164.

Take `O=C(Nc1cccc2c1C(=O)c1ccccc1C2=O)c1ccco1` [Compound 16, N-(9,10-Dihydro-9,10-dioxoanthracen-1-yl)-2-furamide]: the IC50 was 3.11 ± 0.049 µM in experiment [1]; 33.1 ± 1.66 µM in experiment [2] (MTT, 72 h treatment, mean ± SD); greater than 100 µM in experiment [3]; greater than 100 µM in experiment [4]. The “Selectivity index (IC50 normal fibroblast/IC50 HCT-116)” value in experiment [1] is given as greater than 32.2. Further, the “Selectivity for HCT-116 over MCF-7” value in experiment [1] turned out to be 10.6 fold. For the same compound, the “Selectivity index (IC50 normal fibroblast/IC50 MCF-7)” value in experiment [2] is listed as greater than 3.0.
